# In patent US12640054B2, “Computational in silico model for placental barrier” (CFD Research Corporation, priority 2022, dated 2026):
# Counter-ions that a name gives are not always drawn.
# How the values were obtained:
# [1] = tested on: in vitro placenta device (coculture of Bewo trophoblasts and HUVEC); assay: Maternal-placental size exclusion (permeability index) in the in vitro placenta device; assay type: in vitro ADME, human; conditions: injected into the maternal vascular channel at 0.1 μL/min for 1 hour; FIG. 9B
# Protocol: Again, devices can be placed in the incubator.
# In another example, one embodiment of the present invention was used to evaluate maternal-placental size exclusion, where a fluorescein sodium salt (FSS) solution was injected into the maternal vascular channel at 0.1 μL/min for 1 hour. […] PI was expected to decrease as a function of compound molecular weight.
# [2] = tested on: intervillous space - trophoblast barrier; assay: Morphological effects of toxic exposure in the in vitro placenta device; assay type: cell-based; conditions: injected into the maternal channel at 3 μL/min for 4 min, incubated at 37° C. for 15 min; FIG. 10
# Text: In some embodiments, the in vitro placental model device can be used for studying toxicity of test agents to the placenta. Certain compounds not only induce fetal toxicity upon crossing the placental barrier, but also disrupt the barrier itself. The microfluidic placental barrier model can be used to study response to toxic exposure of test agents. The impact to barrier function can be assessed through permeability comparisons and toxicity (e.g., cytotoxicity, etc.) can be assessed off chip by various methods (e.g., cell lysate luminescence assay, genomic analysis, etc.).
# For example, an in vitro placenta device was exposed to trypan blue by injection into the maternal channel at 3 μL/min for 4 min and then incubated at 37° C. for 15 min, similar to protocols in literature^7,8. […] White arrows show barrier degradation, and dark arrows show apoptosis following trypan blue exposure.
# trophoblast channel = assay: Cytotoxicity by adenylate kinase release (luminescence); assay type: cell-based; conditions: samples from the trophoblast channel; FIG. 11
# Protocol: Following exposure, FSS was injected into the maternal channel and permeability assayed. Permeability in the devices was 10-fold higher in trypan blue treated devices compared to controls. An additional assay was performed to determine cytotoxicity as it relates to the release of adenylate kinase. A positive control (100% death by lysis buffer) and a negative control (media only) were included for comparison. Samples were taken from the trophoblast channel and placed in a low volume, white walled […] plate for luminescence analysis using a plate reader. […] The increase in AK release in arbitrary luminescence units compares the toxic exposure of trypan blue to positive and negative controls.
Compound,increase in average PI compared to 4 kD TRITC-dextran [1] [fold],morphological effects of exposure [2],increase in adenylate kinase release (trophoblast channel) [fold]
"O=C1OC2(c3ccc(O)cc3Oc3cc(O)ccc32)c2ccccc21 [FSS, fluorescein sodium salt]",~2,–,–
Cc1cc(-c2ccc(/N=N/c3c(S(=O)(=O)O)cc4cc(S(=O)(=O)O)cc(N)c4c3O)c(C)c2)ccc1/N=N/c1c(S(=O)(=O)O)cc2cc(S(=O)(=O)O)cc(N)c2c1O [trypan blue],–,"barrier degradation (e.g., cell death and detachment) and apoptosis",1.5
